Data from patent publication EP0067666A1, “Salts of antimicrobial naphthyridine and quinoline compounds and their production” (priority 1981, dated 1982).
Converted amounts (≈) assume the structure as drawn.

Columns and labels:
Escherichia coli Vogel = test: Acute mouse protection test; type: in vivo; conditions: single dose given at time of challenge, compound B series; for Single sc Dose PD50 (mg/kg) ± 95% Confidence Limits Escherichia coli Vogel: subcutaneous
Staph. aureus UC-76 = test: Antibacterial activity, MIC; type: cell-based; conditions: based on content of compound B
E. coli Vogel = test: Antibacterial activity, MIC; type: cell-based; conditions: based on content of compound B
Entero cloacae MA 2646 = test: Antibacterial activity, MIC; type: cell-based; conditions: based on content of compound B
Strep. pyogenes C-203 = test: Antibacterial activity, MIC; type: cell-based; conditions: based on content of compound B
Strep. pneumoniae SV-1 = test: Antibacterial activity, MIC; type: cell-based; conditions: based on content of compound B
Pseudo. aeruginosa UI-18 = test: Antibacterial activity, MIC; type: cell-based; conditions: based on content of compound B
Klebs. pneumoniae MGH-2 = test: Antibacterial activity, MIC; type: cell-based; conditions: based on content of compound B
[1] = tested on: Klebsiella pneumoniae MGH-2; test: Acute mouse protection test; type: in vivo; conditions: subcutaneous, single dose given at time of challenge, compound B series
[2] = tested on: Staphylococcus aureus UC-76; test: Acute mouse protection test; type: in vivo; conditions: single dose given at time of challenge, compound B series
Strep. faecalis MGH-2 = test: Antibacterial activity, MIC; type: cell-based; conditions: based on content of compound B
Proteus retgeri M 1771 = test: Antibacterial activity, MIC; type: cell-based; conditions: based on content of compound B
Staph. aureus H 228 = test: Antibacterial activity, MIC; type: cell-based; conditions: based on content of compound B

| Structure (SMILES) | Single po Dose PD50 (mg/kg) ± 95% Confidence Limits Escherichia coli Vogel (Escherichia coli Vogel) [mg/kg] | Single sc Dose PD50 (mg/kg) ± 95% Confidence Limits Escherichia coli Vogel (Escherichia coli Vogel) [mg/kg] | MIC µg/ml Staph. aureus UC-76 (Staph. aureus UC-76) [µg/mL] | MIC µg/ml E. coli Vogel (E. coli Vogel) [µg/mL] | MIC µg/ml Entero cloacae MA 2646 (Entero cloacae MA 2646) [µg/mL] | MIC µg/ml Strep. pyogenes C-203 (Strep. pyogenes C-203) [µg/mL] | MIC µg/ml Strep. pneumoniae SV-1 (Strep. pneumoniae SV-1) [µg/mL] | MIC µg/ml Pseudo. aeruginosa UI-18 (Pseudo. aeruginosa UI-18) [µg/mL] | MIC µg/ml Klebs. pneumoniae MGH-2 (Klebs. pneumoniae MGH-2) [µg/mL] | Single sc Dose PD50 (mg/kg) ± 95% Confidence Limits Klebsiella pneumoniae MGH-2 [1] [mg/kg] | Single po Dose PD50 (mg/kg) ± 95% Confidence Limits Staphylococcus aureus UC-76 ([2]; oral) [mg/kg] | Single sc Dose PD50 (mg/kg) ± 95% Confidence Limits Staphylococcus aureus UC-76 ([2]; subcutaneous) [mg/kg] | MIC µg/ml Strep. faecalis MGH-2 (Strep. faecalis MGH-2) [µg/mL] | MIC µg/ml Proteus retgeri M 1771 (Proteus retgeri M 1771) [µg/mL] | MIC µg/ml Staph. aureus H 228 (Staph. aureus H 228) [µg/mL] |
| --- | --- | --- | --- | --- | --- | --- | --- | --- | --- | --- | --- | --- | --- | --- | --- |
| CCn1cc(C(=O)O)c(=O)c2cc(F)c(N3CCNCC3)nc21 [B Aspartate] | 2.9 ± 1.0 | 1.3 ± 0.4 | 0.1 (≈ 0.312 µM) | <0.1 | 0.2 (≈ 0.624 µM) | 6.3 (≈ 19.7 µM) | 3.1 (≈ 9.68 µM) | 0.4 (≈ 1.25 µM) | 0.1 (≈ 0.312 µM) | 1.6 ± 0.6 | 13 ± 3.0 | 4.3 ± 1.4 | 3.1 (≈ 9.68 µM) | <0.1 | 3.1 (≈ 9.68 µM) |
| CCn1cc(C(=O)O)c(=O)c2cc(F)c(N3CCNCC3)nc21 [B Gluconate] | 2.9 ± 0.7 | 1.1 ± 0.4 | 0.4 | 0.1 | 0.4 | 3.1 | 3.1 | 0.8 | 0.2 | 5.2 ± 1.5 | – | – | 3.1 | 0.2 | 1.6 |
